How the values were obtained:
[1] = test system: NK92-44-1 cells (NK92 overexpressing NKp44-1 splice variant); assay: IFNγ secretion assay of NK92-44-1 cells co-incubated with PANC-1 cells; format: cell-based, human; conditions: NK92-44-1 with HLA-I positive PANC-1, E:T 1:2; peptide 10 or 20 µg/well
Experimental: IFNγ secretion assay and ELISA assay were done as previously described ([11], [12]). NKp44-pep8, pep9, and pep10 (10 or 20 µg) were added to the IFNγ secretion assay.
Figure 1 Recognition of recombinant human PCNA (hPCNA) by NKp44-derived pep8 (NKp44-pep8). (A) ELISA assay representing the binding curve of biotinylated NKp44-derived pep5, pep8, and pep10 at a peptide concentration range of 0–7.24 µM to plate bond hPCNA. (B) IFNγ secretion assay of NK92-44-1 cells co-incubate with the HLA positive cell line PANC-1 (E:T ration of 1:2) in the presence of NKp44-pep8 (10 or 20 μg/well), NKp44-derived pep5 was used as negative control. Note that when we apply to NK92-44-1 pep8 (without target cells), activation of IFNγ secretion is minimal and less/similar to the observed activation when applying the pep5 negative control. (C) ELISA assay of blocking NKp44–proliferating cell nuclear antigen (PCNA) interaction via NKp44-pep8. NKp44-derived pep5 was used as a negative control. No peptide represents the maximal binding capacity of NKp44 to hPCNA. (D) ELISA assay showing the specific recognition of NKp44-pep8 (5 µg/ml) to hPCNA relative to TL1A, APO-E3, HNF4, NKp44-Ig, hNKp46-Ig, hFc. (E) ProteOn array showing the binding of hPCNA at protein concentration range of 0–250 nM to bond NKp44-pep8. 0 nM (X base-line), 15.6 nM (yellow), 31.2 (purple), 62.5 nM (green), 125 nM (blue), and 250 nM (red).

[2] = test system: recombinant human PCNA (hPCNA); assay: ELISA binding of biotinylated NKp44-derived peptides to plate-bound recombinant PCNA; conditions: biotinylated peptide, 0–7.24 µM (Figure 1A), streptavidin-HRP, TMB, O.D. 650 nm
Experimental: The pET-28 or pMAL-c2x vectors were used to produce soluble human PCNA (hPCNA) in Rosetta™ 2 (DE3) cells. Plasmids containing the mRNA sequence of PCNA or TL1A, APO-E3, HNF4 were transformed into Rosetta™ 2 cells via heat shock and grown on LB agar plates with kanamycin and chloramphenicol. A fresh colony of transformed bacteria was grown overnight in a 5 ml of LB with kanamycin and chloramphenicol an incubator shaker set to 37°C and at 250 rpm. The next day, bacteria cells were diluted 1:100 into a 500 ml of LB with kanamycin and chloramphenicol (to discard dead cells) and grown to an optical density (O.D.) of 0.6–0.8 (λ = 650 nm). Isopropyl β-D-1-thiogalactopyranoside (0.5 mM) was added for the induction of the PCNA production, and cells were further incubated for 4 h at 26°C (hPCNA). Cells were then centrifuged and the pellet was resuspended with solution A (20 mM Tris–HCl pH 8.0, 0.5 M NaCl, 20 mM imidazole), sonicated six times (20 s with 40 s intervals) and sieved through […] (Sartorius Stedim Biotech) filter before loaded on a His-tag or Amylose resin beads. Purification of His-tagged proteins was done using a Gravity-flow Column with “HisPur™ Ni-NTA Resin” Bead kit (Thermo-Scientific) (binding capacity ≤ 60 mg of a 28 kDa 6xHis-tagged protein from a bacterial source per milliliter of settled resin) according to Kits Protocol. Purification of MBP-tagged proteins was done using the Amylose resin beads (Catalog # E8035S).
To determine the interaction between NKp44-derived peptides and PCNA, ELISA plates were coated overnight at 4°C with 2 µg/ml of the recombinant PCNA or TLA1 ([49]), APO-E3 ([50]), HNF4 ([4]), rhFc, rhNKp44-hFc ([12]), rhNKp46-hFc ([51]), and PBS 1× (negative controls). Blocking buffer (PBS + 2.5% skim milk) was applied for 2 h at room temperature, after that the plates were incubated with 0–8 µM of biotinylated NKp44-derived peptides or PBS 1× (background control) for 2 h at room temperature. NKp44-derived peptides binding to PCNA was detected using horseradish peroxidase (HRP)-conjugated to streptavidin (1 h at 1:500 dilution). Following washing, TMB (DAKO, S1599) was added. O.D. was read at 650 nm (Thermo Electron Corporation Multiskan Spectrum). Between each step, wells were washed three times with PBS containing 0.05% Tween 20 (PBST).

[3] = test system: NKp44–PCNA interaction; assay: ELISA blocking of NKp44-hFc interaction with PCNA; format: binding; conditions: peptide 0–10 µM, NKp44-hFc 80 nM, anti-human IgG-HRP, O.D. 650 nm, negative control pep5
Experimental: To determine the ability of NKp44-pep8 to block NKp44-hFc interaction with PCNA, ELISA plates were coated overnight at 4°C with 2 µg/ml of the recombinant PCNA, blocking buffer (PBS + 2.5% skim milk) was applied for 2 h at room temperature, after which the plates were incubated with 0–10 µM of biotinylated NKp44-derived peptides or PBS 1× (100 μl/well, background control) for 2 h at room temperature and then NKp44-hFc (80 nM, 20 µl/well) was added without washing for 1 h at room temperature. NKp44-hFc binding to PCNA was detected using HRP conjugated to antihuman IgG (1 h at 1:400 dilution 100 μl/well). Following washing, TMB (100 μl/well DAKO, S1599) was added. O.D. was read at 650 nm (Thermo Electron Corporation Multiskan Spectrum). Between each step, wells were washed three times with 200 μl/well PBS 1× containing 0.05% Tween 20 (PBST).

VTSSKPRTVAWTSRFTIWAA [pep10, NKp44-derived 20mer peptide, amino acids 67–86]
IFNγ secretion / NK92 cell function in presence of peptide [1]: but not pep10 could block NKp44–PCNA interaction and upregulate NK92 cell function
binding to recombinant hPCNA [2]: also bound to PCNA but to a lesser extent as compared with pep8
inhibition of rhNKp44 binding to PCNA [3]: but not pep10 could block NKp44–PCNA interaction

— PMC5974751, “NKp44-Derived Peptide Binds Proliferating Cell Nuclear Antigen and Mediates Tumor Cell Death” (Frontiers in Immunology, 2018)
